Data: publication PMC9513972, “Carboxypeptidase G and pterin deaminase metabolic pathways degrade folic acid in Variovorax sp. F1” (BMC Microbiology, 2022)

Tested on: T1, recombinant PDA (rPDA) from Variovorax sp. F1
T1 construct: full-length gene product, 399 residues; 45 kDa band; pET28a NdeI/XhoI (N-terminal His tag), E. coli BL21 (DE3), HisTrap
Assay: HPLC initial velocity, Michaelis-Menten fit
Assay type: biochemical
Settings: 50 mM Tris-HCl pH 7.5, 30 °C
Source text: HPLC initial velocity, Michaelis-Menten fit on recombinant PDA (rPDA) from Variovorax sp.

Row | Km (deamination to deaminopteroic acid) [µM] | Km (deamination to deaminofolic acid) [µM] | SMILES
1 | 1500 ± 600 |  | Nc1nc2ncc(CNc3ccc(C(=O)O)cc3)nc2c(=O)[nH]1 [pteroic acid]
2 |  | 280 ± 60 | Nc1nc2ncc(CNc3ccc(C(=O)N[C@@H](CCC(=O)O)C(=O)O)cc3)nc2c(=O)[nH]1 [folic acid]
